For 15 molecules, IC50 and GI50 results are on record in patent US12545685B2 (Daiichi Sankyo Company, Limited, priority 2011, dated 2026).

pIC50: −log10 of the molar value. Where a name gives a salt, the structure may show the parent alone.

In test [1] the target is T1, Mdm2/p53 binding (GST-Mdm2 / His-p53) (Homo sapiens, UniProt Q00987, L33E).
T1 construct: Mdm2 partial protein having Mdm2 amino acids at positions 25 to 108
Description: Mdm2/p53 binding assay (HTRF, His-p53 and GST-Mdm2). To be noted: His-p53 (aa 1-132) and GST-Mdm2 (aa 25-108, L33E) 6.25 nM each; 25°C, 1 hour; values given as ranges. In short, it runs like this: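 His-p53 (aa 1–132) and GST-Mdm2 (aa 25–108, L33E) were prepared at 6.25 nM each in the protein dilution (20 mM HEPES pH 7.4, 150 mM NaCl, 0.1% BSA). Compound in 10% DMSO buffer and XL665 anti-His/Eu anti-GST antibodies (KF buffer) were added, with 1 h at 25 °C. The 665/620 nm TR-FRET ratio gave T/C and a sigmoid-fitted IC50.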

Test [2] concerns human lung cancer-derived cell line NCI-H460 having wild-type p53. Description: Cell growth inhibition assay (MTT). In kind it is cell-based. Conditions: 72 h, NCI-H460 cells, 3 days culture, values given as ranges, read-out: 50% growth inhibition concentration (GI50 value). The protocol: A cell growth inhibition assay was conducted using a human lung cancer-derived cell line NCI-H460 having wild-type p53.
NCI-H460 cells were suspended in a medium (RPMI1640 medium containing 10% fetal bovine serum) and the suspension was added in an amount of 500 cells/150 μl/well to a 96-well plate. A test compound was dissolved in DMSO and this solution was diluted with medium to prepare a sample solution (DMSO concentration: 1% or lower). On the next day, medium nonsupplemented with the test compound, or the sample solution, was added in an amount of 50 μl/well. Cells were then cultured at 37° ° C. for 3 days in a 5% CO2 atmosphere.
An MTT assay was conducted immediately after the nonsupplemented medium or the sample solution was added. Another MTT assay was conducted after culturing the cells for 3 days. The MIT assays were conducted as shown below.
A 5 mg/ml MTT (3-(4,5-dimethylthiazol-2-yl)-2,5-diphenyltetrazolium bromide, Sigma-Aldrich Co., M-2128) solution was prepared using a phosphate buffer solution (Dulbecco's Phosphate-buffered Saline). This MIT solution was added in an amount of 20 μl/well. Then the plate was cultured at 37° ° C. for 4 hours in a 5% CO2 atmosphere. The plate was centrifuged at 1200 rpm for 5 minutes and then the culture supernatant was removed by aspiration using a dispenser. DMSO was added in an amount of 150 μl/well to dissolve generated formazan. The plate was stirred using a plate mixer for uniform color development from each well. The absorbance of each well was measured at OD 540 nm and at a reference OD (660 nm) using a plate reader (SpectraMax PLUS384, Molecular Devices, CA, USA).
The OD value measured on the day of adding the sample solution was defined as S. The OD value measured three days after addition of the sample solution was defined as T. The OD value measured three days after addition of the DMSO dilution was defined as C. T/C (%) was determined at each concentration according to the formula shown below in order to prepare a dose response curve, from which 50% growth inhibition concentration (GI50 value) was calculated.

T1 sequence (Q00987 25-108 L33E): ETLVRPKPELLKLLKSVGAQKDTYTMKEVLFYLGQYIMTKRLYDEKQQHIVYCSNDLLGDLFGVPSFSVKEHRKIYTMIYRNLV

In turn, `CC1(C)CCC2(CC1)N[C@@H](C(=O)N[C@H]1CC[C@H](O)CC1)[C@H](c1cccc(Cl)c1F)[C@]21C(=O)Nc2cc(Cl)ccc21` (relative stereo) [Example 1, (3′R, 4′S,5′R)-6″-chloro-4′-(3-chloro-2-fluorophenyl)-N-(trans-4-hydroxycyclohexyl)-4,4-dimethyl-2″-oxo-1″,2″-dihydrodispiro[cyclohexane-1,2′-pyrrolidine-3′,3″-indole]-5′-carboxamide] gave a negative logarithm of the IC50 (pIC50) in test [1] of 7.00 to 7.30. In addition, in test [2], the GI50 was 0.1 to 0.5 µM.
Taken in the same sequence, the figures for `CC1(C)CCC2(CC1)N[C@@H](C(=O)N[C@H]1CC[C@H](CO)CC1)[C@H](c1cccc(Cl)c1F)[C@]21C(=O)Nc2nc(Cl)ccc21` (relative stereo) [Example 2, (3′R, 4′S,5′R)-6″-chloro-4′-(3-chloro-2-fluorophenyl)-N-[trans-4-(hydroxymethyl)cyclohexyl]-4,4-dimethyl-2″-oxo-1″,2″-dihydrodispiro[cyclohexane-1,2′-pyrrolidine-3′,3″-pyrrolo[2,3-b]pyridine]-5′-carboxamide] were 7.00 to 7.30 and 1 to 5 µM.
Taken in the same sequence, the figures for `O=C(N[C@H]1CC[C@H](O)CC1)[C@@H]1NC2(CCCCC2)[C@@]2(C(=O)Nc3cc(Cl)ccc32)[C@H]1c1cccc(Cl)c1F` (relative stereo) [Example 4, (3′R, 4′S,5′R)-6″-chloro-4′-(3-chloro-2-fluorophenyl)-N-(trans-4-hydroxycyclohexyl)-2″-oxo-1″,2″-dihydrodispiro[cyclohexane-1,2′-pyrrolidine-3′,3″-indole]-5′-carboxamide] were 6.30 to 7.00 and 1 to 5 µM.
For `CC1(C)CCC2(CC1)N[C@@H](C(=O)N[C@H]1CC[C@H](c3nnco3)CC1)[C@H](c1cccc(Cl)c1F)[C@]21C(=O)Nc2nc(Cl)ccc21` (relative stereo) [Example 5, (3′R, 4′S,5′R)-6″-chloro-4′-(3-chloro-2-fluorophenyl)-4,4-dimethyl-N-[trans-4-(1,3,4-oxadiazol-2-yl)cyclohexyl]-2″-oxo-1″,2″-dihydrodispiro[cyclohexane-1,2′-pyrrolidine-3′,3″-pyrrolo[2,3-b]pyridine]-5′-carboxamide], in that order: 7.00 to 7.30 and 1 to 5 µM.
With `CC1(C)CCC2(CC1)N[C@@H](C(=O)N[C@H]1CC[C@H](O)CC1)[C@H](c1cccc(Cl)c1F)[C@]21C(=O)Nc2nc(Cl)ccc21` (relative stereo) [Example 6, (3′R, 4′S,5′R)-6″-chloro-4′-(3-chloro-2-fluorophenyl)-N-(trans-4-hydroxycyclohexyl)-4,4-dimethyl-2″-oxo-1″,2″-dihydrodispiro[cyclohexane-1,2′-pyrrolidine-3′,3″-pyrrolo[2,3-b]pyridine]-5′-carboxamide], the negative-log IC50 (pIC50) in test [1] is 7.30 to 9.00. In test [2], the GI50 was 1 to 5 µM.
The molecule `CC1(C)CCC2(CC1)N[C@@H](C(=O)N[C@H]1CC[C@H](O)CC1)[C@H](c1ccnc(Cl)c1F)[C@]21C(=O)Nc2cc(Cl)ccc21` (relative stereo) [Example 16, (3′R, 4′S,5′R)-6″-chloro-4′-(2-chloro-3-fluoropyridin-4-yl)-N-(trans-4-hydroxycyclohexyl)-4,4-dimethyl-2″-oxo-1″,2″-dihydrodispiro[cyclohexane-1,2′-pyrrolidine-3′,3″-indole]-5′-carboxamide] had a negative logarithm of the IC50 (pIC50) in test [1] of 7.30 to 9.00. For the same molecule, in test [2], the GI50 was in the range of 0.1 to 0.5 µM.
For `CC1(C)CCC2(CC1)N[C@@H](C(=O)N[C@H]1CC[C@H](c3nnco3)CC1)[C@H](c1ccnc(Cl)c1F)[C@]21C(=O)Nc2cc(Cl)ccc21` (relative stereo) [Example 18, (3′R, 4′S,5′R)-6″-chloro-4′-(2-chloro-3-fluoropyridin-4-yl)-4,4-dimethyl-N-[trans-4-(1,3,4-oxadiazol-2-yl)cyclohexyl]-2″-oxo-1″,2″-dihydrodispiro[cyclohexane-1,2′-pyrrolidine-3′,3″-indole]-5′-carboxamide], in that order: 7.00 to 7.30 and 0.1 to 0.5 µM.
For `CC1(C)CCC2(CC1)N[C@@H](C(=O)N[C@H]1CC[C@H](NC(=O)CO)CC1)[C@H](c1cccc(Cl)c1F)[C@]21C(=O)Nc2cc(Cl)ccc21` (relative stereo) [Example 24, (3′R, 4′S,5′R)-6″-chloro-4′-(3-chloro-2-fluorophenyl)-N-{trans-4-[(hydroxyacetyl)amino]cyclohexyl}-4,4-dimethyl-2″-oxo-1″,2″-dihydrodispiro[cyclohexane-1,2′-pyrrolidine-3′,3″-indole]-5′-carboxamide], in that order: 7.00 to 7.30 and 0.1 to 0.5 µM.
On to `CC1(C)CCC2(CC1)N[C@@H](C(=O)N[C@@H]1CC[C@@H](C(O)CO)OC1)[C@H](c1ccnc(Cl)c1F)[C@]21C(=O)Nc2cc(Cl)ccc21` (single isomer, unassigned) [Example 90], for which the GI50 in test [2] fell in the range of 0.1 to 0.5 µM.
Take `CC1(C)CCC2(CC1)N[C@@H](C(=O)N[C@@H]1CC[C@@H](C(N)=O)OC1)[C@H](c1ccnc(Cl)c1F)[C@]21C(=O)Nc2cc(Cl)ccc21` [Example 70, (3′R, 4′S,5′R)—N-[(3R,6S)-6-carbamoyltetrahydro-2H-pyran-3-yl]-6″-chloro-4′-(2-chloro-3-fluoropyridin-4-yl)-4,4-dimethyl-2″-oxo-1″,2″-dihydrodispiro[cyclohexane-1,2′-pyrrolidine-3′,3″-indole]-5′-carboxamide]: in test [2], the GI50 was < 0.1 µM.
On to `CC1(C)CCC2(CC1)N[C@@H](C(=O)N[C@@H]1CC[C@@H](C(N)=O)OC1)[C@H](c1cccc(Cl)c1F)[C@]21C(=O)Nc2cc(Cl)ccc21` [Example 181, (3′R, 4′S,5′R)-N-[(3R, 6S)-6-carbamoyltetrahydro-2H-pyran-3-yl]-6″-chloro-4′-(3-chloro-2-fluorophenyl)-4,4-dimethyl-2″-oxo-1″,2″-dihydrodispiro[cyclohexane-1,2′-pyrrolidine-3′,3′-indole]-5′-carboxamide], for which the negative logarithm of the IC50 (pIC50) in test [1] is 7.30 to 9.00.
Still for that read-out and setting: the same measure for `CC1(C)CCC2(CC1)N[C@@H](C(=O)N[C@@H]1CCC(C)(C(N)=O)OC1)[C@H](c1ccnc(Cl)c1F)[C@]21C(=O)Nc2cc(Cl)ccc21` (stereo partly drawn) [Example 187, (3′R, 4′S,5′R)—N-[(3R)-6-carbamoyl-6-methyltetrahydro-2H-pyran-3-yl]-6″-chloro-4′-(2-chloro-3-fluoropyridin-4-yl)-4,4-dimethyl-2″-oxo-1″,2″-dihydrodispiro[cyclohexane-1,2′-pyrrolidine-3′,3″-indole]-5′-carboxamide]: 7.30 to 9.00; for `CC1(C)CCC2(CC1)N[C@@H](C(=O)NC1(C)CC[C@@H](C(N)=O)OC1)[C@H](c1ccnc(Cl)c1F)[C@]21C(=O)Nc2cc(Cl)ccc21` (stereo partly drawn) [Example 189, (3′R, 4′S,5′R)—N-[(6S)-6-carbamoyl-3-methyltetrahydro-2H-pyran-3-yl]-6″-chloro-4′-(2-chloro-3-fluoropyridin-4-yl)-4,4-dimethyl-2″-oxo-1′1,2″-dihydrodispiro[cyclohexane-1,2′-pyrrolidine-3′,3″-indole]-5′-Carboxamide]: 7.30 to 9.00.
As to `C[C@@H](O)[C@@H]1CC[C@@H](NC(=O)[C@@H]2NC3(CCC(C)(C)CC3)[C@@]3(C(=O)Nc4cc(Cl)ncc43)[C@H]2c2ccnc(Cl)c2F)CO1` [Example 192, 6″-Chloro-4′-(2-chloro-3-fluoropyridin-4-yl)-N-{(3R,6S)-6-[(1R)-1-hydroxyethyl]tetrahydro-2H-pyran-3-yl}-4,4-dimethyl-2″-oxo-1″,2″-dihydrodispiro[cyclohexane-1,2′-pyrrolidine-3′,3″-pyrrolo[3,2-c]pyridine]-5′-carboxamide], the negative-log IC50 (pIC50) in test [1] is 7.30 to 9.00.
Same read-out and setting: the figure for `CC1(C)CCC2(CC1)N[C@@H](C(=O)N[C@@H]1CC[C@@H](C(N)=O)OC1)[C@H](c1ccnc(Cl)c1F)[C@]21C(=O)Nc2cc(Cl)ccc21` [Example 193, (3′R, 4′S, S′R)—N-[(3R,6S)-6-carbamoyltetrahydro-2H-pyran-3-yl]-6″-chloro-4′-(2-chloro-3-fluoropyridin-4-yl)-4,4-dimethyl-2″-oxo-1″,2″-dihydrodispiro[cyclohexane-1,2′-pyrrolidine-3′,3″-indole]-5′-carboxamide hydrochloride water/2-propanol (IPA) solvate] is 7.30 to 9.00.
